These are literature values, as cited in patent publication US20050048573A1, “PDE5A crystal structure and uses” (Plexxikon, Inc., priority 2003, published 2005).

The data set deals with PDE5 (Bos taurus, UniProt Q28156). The following applies: allosteric sites; read-out: KD of PDE5 for binding cGMP in the allosteric sites.

Structures are written as SMILES.

As to `Nc1nc2c(ncn2[C@@H]2O[C@@H]3COP(=O)(O)O[C@H]3[C@H]2O)c(=O)[nH]1` [cGMP], the Kd was roughly 200 nM.
